In patent US11206830B2, “Herbicidal composition comprising glufosinate or a salt thereof and pyroxasulfone” (BASF SE, priority 2008, dated 2021):

Assays:
Format in all cases: in vivo
[1] = system: Alopecurus myosuroides (ALOMY); assay: greenhouse post-emergence herbicidal activity on ALOMY; conditions: for inhibition at 6.25 g/ha: read-out: % activity 20 DAT, post-emergence, solo application, 6.25 g ai/ha
From the text: (§1) For the post-emergence treatment, the test plants were first grown to a height of 3 to 20 cm, depending on the plant habit, and only then treated. Here, the herbicidal compositions were suspended or emulsified in water as distribution medium and sprayed using finely distributing nozzles.
(§2) The respective herbicides B and/or safener were formulated as 10% by weight strength suspension concentrate and introduced to the spray liquor with the amount of solvent system used for applying the active compound. Herbicides A, C and/or safener were used as commercially available formulations and introduced to the spray liquor with the amount of solvent system used for applying the active compound. In the examples, the solvent used was water.
(§3) The test period extended over 21 days. During this time, the plants were tended, and their response to the treatments with active compound was evaluated.
(§4) The evaluation for the damage caused by the chemical compositions was carried out using a scale from 0 to 100%, compared to the untreated control plants. Here, 0 means no damage and 100 means complete destruction of the plants.
(§5) The value E, which is to be expected if the activity of the individual compounds is just additive, was calculated using the method of S. R. Colby (1967) “Calculating synergistic and antagonistic responses of herbicide combinations”, Weeds 15, p. 22 ff. For two component mixtures the value E was calculated by the following formula E=X+Y−(X·Y/100)
(§6) For three component mixtures the value E was calculated by the following formula E=X+Y+Z−(XY+XZ+YZ)/100+(X·YZ/10000) where X=effect in percent using herbicide A at an application rate a; • Y=effect in percent using herbicide B at an application rate b; • Z=effect in percent using herbicide C at an application rate c; • E=expected effect (in %) of A+B at application rates a+b. or • E=expected effect (in %) of A+B+C at application rates a+b+c.
(§7) If the value observed in this manner is higher than the value E calculated according to Colby, a synergistic effect is present.
(§8) Tables 1 to 12 relate to the herbicidal activity of the individual actives and of their combinations in post-emergence application assessed 20 DAT.

[2] = system: Digitaria sanguinalis (DIGSA); assay: greenhouse post-emergence herbicidal activity on DIGSA
From the text: as §1, §2, §3, §4, §5, §6, §7, §8

[3] = system: Chenopodium album (CHEAL); assay: greenhouse post-emergence herbicidal activity on CHEAL
From the text: as §1, §2, §3, §4, §5, §6, §7, §8

[4] = system: Abutilon theophrasti (ABUTH); assay: greenhouse post-emergence herbicidal activity on ABUTH
From the text: as §1, §2, §3, §4, §5, §6, §7, §8

[5] = system: Polygonum convolvulus (POLCO); assay: greenhouse post-emergence herbicidal activity on POLCO; conditions: Fallopia convolvulus, 480 h, read-out: % activity 20 DAT
From the text: as §1, §2, §3, §4, §5, §6, §7, §8

Galium aparine (GALAP) = assay: greenhouse post-emergence herbicidal activity on GALAP; conditions: Galium aparine, 480 h
From the text: as §1, §2, §3, §4, §5, §6, §7, §8

Avena fatua (AVEFA) = assay: greenhouse post-emergence herbicidal activity on AVEFA; conditions: 480 h, read-out: % activity 20 DAT
From the text: as §1, §2, §3, §4, §5, §6, §7, §8

[6] = system: Lolium multiflorum (LOLMU); assay: greenhouse post-emergence herbicidal activity on LOLMU
From the text: as §1, §2, §3, §4, §5, §6, §7, §8

[7] = system: Matricaria inermis (MATIN); assay: greenhouse post-emergence herbicidal activity on MATIN; conditions: for % activity 20 DAT: solo application
From the text: as §1, §2, §3, §4, §5, §6, §7, §8

Sinapis arvensis (SINAR) = assay: greenhouse post-emergence herbicidal activity on SINAR; conditions: solo application, 135 g ai/ha
From the text: as §1, §2, §3
The evaluation for the damage caused by the chemical compositions was carried out using a scale from 0 to 100%, compared to the untreated control plants. […]
The value E, which is to be expected if the activity of the individual compounds is just additive, was calculated using the method of S. R. Colby (1967) “Calculating synergistic and antagonistic responses of herbicide combinations”, Weeds 15, p. […] For two component mixtures the value E was calculated by the following formula E=X+Y−(X·Y/100)
as §6, §7, §8

[8] = Digitaria sanguinalis, 480 h, read-out: % activity 20 DAT

CCc1nc2c(Cl)cc(Cl)c(-c3nn(C)c(OC(F)F)c3Br)c2o1 [Compound B]
inhibition at 6.25 g/ha ([1]; Alopecurus myosuroides, 480 h): 20% | inhibition at 12.5 g/ha ([1]; Alopecurus myosuroides, 480 h, read-out: % activity 20 DAT, post-emergence, solo application, 12.5 g ai/ha): 35% | inhibition at 6.25 g/ha [2, 8]: 50% | inhibition at 6.25 g/ha ([3]; Chenopodium album, 480 h, read-out: % activity 20 DAT, post-emergence, solo application, 6.25 g ai/ha): 85% | inhibition at 6.25 g/ha ([4]; Abutilon theophrasti, 480 h, read-out: % activity 20 DAT, post-emergence, solo application, 6.25 g ai/ha): 98% | inhibition at 6.25 g/ha [5]: 90%

C#CCN1C(=O)COc2cc(F)c(-n3c(=O)n(C)c(=S)n(C)c3=O)cc21 [Compound D]
inhibition at 3.13 g/ha ([1]; Alopecurus myosuroides, 480 h, read-out: % activity 20 DAT, post-emergence, solo application, 3.13 g ai/ha): 30% | inhibition at 6.25 g/ha ([1]; Alopecurus myosuroides, 480 h): 40% | inhibition at 3.13 g/ha [2, 8]: 35% | inhibition at 3.13 g/ha ([3]; Chenopodium album, 480 h, read-out: % activity 20 DAT, post-emergence, solo application, 3.13 g ai/ha): 45% | inhibition at 3.13 g/ha (Galium aparine (GALAP); read-out: % activity 20 DAT, post-emergence, solo application, 3.13 g ai/ha): 30% | inhibition at 6.25 g/ha (Galium aparine (GALAP); read-out: % activity 20 DAT, post-emergence, solo application, 6.25 g ai/ha): 30% | inhibition at 6.25 g/ha (Avena fatua (AVEFA)): 75% | inhibition at 3.13 g/ha ([6]; Lolium multiflorum, 480 h, read-out: % activity 20 DAT, post-emergence, solo application, 3.13 g ai/ha): 40% | inhibition at 3.13 g/ha [5]: 95%

CCNc1nc(Cl)nc(NC(C)C)n1 [atrazin]
inhibition at 250 g/ha ([1]; Alopecurus myosuroides, 480 h, solo application, 250 g ai/ha, read-out: % activity 20 DAT): 50% | inhibition at 62.5 g/ha ([2]; Digitaria sanguinalis, 480 h, solo application, 62.5 g ai/ha, read-out: % activity 20 DAT): 0% | inhibition at 62.5 g/ha ([3]; Chenopodium album, 480 h, solo application, 62.5 g ai/ha, read-out: % activity 20 DAT): 20% | inhibition at 125 g/ha ([3]; Chenopodium album, 480 h, solo application, 125 g ai/ha, read-out: % activity 20 DAT): 60%

COc1c(Cl)ccc(Cl)c1C(=O)O [dicamba]
inhibition at 25 g/ha ([1]; Alopecurus myosuroides, 480 h, solo application, 25 g ai/ha, read-out: % activity 20 DAT): 10% | inhibition at 50 g/ha ([3]; Chenopodium album, 480 h, solo application, 50 g ai/ha, read-out: % activity 20 DAT): 50% | inhibition at 50 g/ha ([4]; Abutilon theophrasti, 480 h, solo application, 50 g ai/ha, read-out: % activity 20 DAT): 50% | inhibition at 25 g/ha ([7]; Matricaria, 480 h, read-out: % activity 20 DAT, post-emergence, solo application, 25 g ai/ha): 45% | inhibition at 50 g/ha ([6]; Lolium multiflorum, 480 h, solo application, 50 g ai/ha, read-out: % activity 20 DAT): 0%

COC[C@H](C)N(C(=O)CCl)c1c(C)csc1C [dimethenamid-P]
% activity 20 DAT ([1]; solo application, 270 g ai/ha): 20% | % activity 20 DAT ([1]; solo application, 540 g ai/ha): 30% | % activity 20 DAT ([2]; solo application, 135 g ai/ha): 50% | % activity 20 DAT ([2]; solo application, 270 g ai/ha): 50% | % activity 20 DAT ([3]; solo application, 270 g ai/ha): 20% | % activity 20 DAT ([4]; solo application, 135 g ai/ha): 15% | % activity 20 DAT ([4]; solo application, 540 g ai/ha): 15% | % activity 20 DAT ([7]; 135 g ai/ha): 0% | % activity 20 DAT ([7]; 270 g ai/ha): 0% | % activity 20 DAT (Sinapis arvensis (SINAR)): 45% | % activity 20 DAT ([6]; solo application, 135 g ai/ha): 60%
